The values that follow come from patent US9051299B2, “Imidazolyl methyl piperidine T-type calcium channel antagonists” (Merck Sharp & Dohme Corp., priority 2012, dated 2015).

Test [1] has as its target T1, T-type calcium channel A1i (alpha-1I, CaV 3.3) (Homo sapiens, UniProt Q9P0X4).
T1 construct: expressed in transfected cells; host or cells: HEK 293 cells, tetracycline-inducible expression (Zeocin/Blasticidin selection)
In words: FLIPR Ca2+ Flux Assay, hyperpolarized state. The class given is cell-based. The settings on record: measure of the ability to inhibit T-type calcium channel, read-out: Ali Hyperpolarized.

For test [2], the target named is T1, T-type calcium channel A1i (alpha-1I, CaV 3.3). Briefly: FLIPR Ca2+ Flux Assay, depolarized state. The class given is cell-based. The settings on record: measure of the ability to inhibit T-type calcium channel. (A change in cytosolic calcium serves as a functional read-out for many receptors and channels.)

Some results are limits rather than exact numbers.

T1 sequence (Q9P0X4 whole entry): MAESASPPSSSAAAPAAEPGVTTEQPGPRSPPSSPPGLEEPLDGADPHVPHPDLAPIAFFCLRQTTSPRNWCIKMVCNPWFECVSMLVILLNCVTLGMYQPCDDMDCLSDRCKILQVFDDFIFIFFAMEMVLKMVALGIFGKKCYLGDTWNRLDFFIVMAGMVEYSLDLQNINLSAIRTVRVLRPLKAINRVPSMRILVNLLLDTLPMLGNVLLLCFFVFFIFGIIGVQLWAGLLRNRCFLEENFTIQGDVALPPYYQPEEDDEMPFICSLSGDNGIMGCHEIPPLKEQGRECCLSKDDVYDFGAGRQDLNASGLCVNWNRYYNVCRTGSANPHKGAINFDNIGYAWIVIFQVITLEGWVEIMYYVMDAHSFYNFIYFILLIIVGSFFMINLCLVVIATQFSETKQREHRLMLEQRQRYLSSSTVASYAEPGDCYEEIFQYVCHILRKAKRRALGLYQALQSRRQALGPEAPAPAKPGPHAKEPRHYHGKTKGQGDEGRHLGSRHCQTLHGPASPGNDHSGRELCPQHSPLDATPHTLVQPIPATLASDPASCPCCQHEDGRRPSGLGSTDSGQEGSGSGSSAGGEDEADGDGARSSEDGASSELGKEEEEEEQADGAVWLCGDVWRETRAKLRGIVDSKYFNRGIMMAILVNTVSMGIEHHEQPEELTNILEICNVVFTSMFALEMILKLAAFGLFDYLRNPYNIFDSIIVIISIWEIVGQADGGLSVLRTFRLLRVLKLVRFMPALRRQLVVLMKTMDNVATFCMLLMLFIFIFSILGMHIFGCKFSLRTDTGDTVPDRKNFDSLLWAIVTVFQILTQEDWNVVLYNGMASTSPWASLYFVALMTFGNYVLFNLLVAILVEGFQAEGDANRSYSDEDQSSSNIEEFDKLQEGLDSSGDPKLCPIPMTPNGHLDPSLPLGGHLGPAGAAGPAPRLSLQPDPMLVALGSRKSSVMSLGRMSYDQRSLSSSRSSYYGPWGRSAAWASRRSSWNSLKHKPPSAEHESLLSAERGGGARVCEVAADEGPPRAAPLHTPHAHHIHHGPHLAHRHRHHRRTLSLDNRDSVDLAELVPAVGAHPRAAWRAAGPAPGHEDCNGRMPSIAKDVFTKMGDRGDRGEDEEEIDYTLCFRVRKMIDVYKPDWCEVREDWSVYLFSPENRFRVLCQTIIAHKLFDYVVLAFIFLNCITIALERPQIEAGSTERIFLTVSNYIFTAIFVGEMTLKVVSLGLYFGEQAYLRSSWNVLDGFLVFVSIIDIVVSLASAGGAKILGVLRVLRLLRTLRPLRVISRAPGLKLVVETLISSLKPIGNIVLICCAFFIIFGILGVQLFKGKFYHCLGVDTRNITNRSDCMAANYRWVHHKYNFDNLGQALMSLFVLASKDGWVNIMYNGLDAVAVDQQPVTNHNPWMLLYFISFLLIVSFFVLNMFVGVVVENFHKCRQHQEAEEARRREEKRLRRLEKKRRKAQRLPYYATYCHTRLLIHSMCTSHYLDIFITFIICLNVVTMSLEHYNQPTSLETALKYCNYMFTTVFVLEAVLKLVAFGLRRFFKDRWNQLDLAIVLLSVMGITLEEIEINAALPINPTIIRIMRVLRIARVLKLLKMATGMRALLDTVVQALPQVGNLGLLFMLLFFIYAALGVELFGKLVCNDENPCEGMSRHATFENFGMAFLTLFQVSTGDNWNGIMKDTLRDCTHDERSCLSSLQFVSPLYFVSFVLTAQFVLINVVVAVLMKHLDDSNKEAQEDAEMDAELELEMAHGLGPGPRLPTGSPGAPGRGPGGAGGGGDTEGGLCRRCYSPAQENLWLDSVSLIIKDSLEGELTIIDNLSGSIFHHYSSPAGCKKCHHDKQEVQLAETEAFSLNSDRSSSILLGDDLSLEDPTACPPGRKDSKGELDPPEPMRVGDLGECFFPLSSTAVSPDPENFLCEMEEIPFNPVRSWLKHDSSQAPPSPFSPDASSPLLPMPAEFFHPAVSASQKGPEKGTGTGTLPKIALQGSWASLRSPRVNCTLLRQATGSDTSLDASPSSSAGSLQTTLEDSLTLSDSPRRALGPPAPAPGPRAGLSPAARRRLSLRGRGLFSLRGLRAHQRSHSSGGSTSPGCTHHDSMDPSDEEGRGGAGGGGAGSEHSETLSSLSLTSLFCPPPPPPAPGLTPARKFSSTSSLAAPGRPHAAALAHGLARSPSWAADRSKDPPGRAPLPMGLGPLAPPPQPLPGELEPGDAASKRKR

Consider `Cc1ccc(C(=O)C2CCN(Cc3c[nH]c(-c4ccccc4)n3)CC2)cc1` [Example 7, [1-[(2-phenyl-1H-imidazol-4-yl)methyl]-4-piperidyl]-(p-tolyl)methanone], for which the IC50 in test [1] turned out to be 644 nM; in test [2] it was 7.09 µM.

Regarding `CCc1nc(C)c(CN2CCC(C(=O)c3cccc(C(F)(F)F)c3)CC2)[nH]1` [Example 10, [1-[(2-ethyl-4-methyl-1H-imidazol-5-yl)methyl]-4-piperidyl]-[3-(trifluoromethyl)phenyl]methanone], the values for the IC50 in test [1] and in test [2] were 6900 nM and > 10 µM, respectively.

As for `O=C(c1ccc2nonc2c1)C1CCN(Cc2c[nH]c(-c3ccccc3)n2)CC1` [Example 4, 2,1,3-benzoxadiazol-5-yl-[1-[(2-phenyl-1H-imidazol-4-yl)methyl]-4-piperidyl]methanone], the results for the IC50 in test [1] and in test [2] were 155 nM and 2.87 µM, respectively.

For `O=C(c1ccc(F)c(F)c1)C1CCN(Cc2c[nH]c(-c3ccccc3)n2)CC1` [Example 5, (3,4-difluorophenyl)-[1-[(2-phenyl-1H-imidazol-4-yl)methyl]-4-piperidyl]methanone], the IC50 came to 686 nM in test [1] and 4.06 µM in test [2].

For `O=C(c1cccc(Cl)c1)C1CCN(Cc2c[nH]c(-c3ccccc3)n2)CC1` [Example 3, (3-chlorophenyl)-[1-[(2-phenyl-1H-imidazol-4-yl)methyl]-4-piperidyl]methanone], the IC50 in test [1] is 129 nM; in test [2], 2.09 µM.

On to `Cc1nc(CN2CCC(C(=O)c3cccc(C(F)(F)F)c3)CC2)c[nH]1` [Example 9, [1-[(2-methyl-1H-imidazol-4-yl)methyl]-4-piperidyl]-[3-(trifluoromethyl)phenyl]methanone], for which the results for the IC50 in test [1] and in test [2] were 7600 nM and > 10 µM, respectively.

In the case of `COc1ccc(C(=O)C2CCN(Cc3c[nH]c(-c4ccccc4)n3)CC2)cc1` [Example 6, (4-methoxyphenyl)-[1-[(2-phenyl-1H-imidazol-4-yl)methyl]-4-piperidyl]methanone], the IC50 is 1060 nM in test [1] and > 10 µM in test [2].

In the case of `O=C(c1ccc(F)cc1)C1CCN(Cc2c[nH]c(-c3ccccc3)n2)CC1` [Example 2], the IC50 is 242 nM in test [1] and 3.18 µM in test [2].

On to `Cc1cccc(C(=O)C2CCN(Cc3c[nH]c(-c4ccccc4)n3)CC2)c1` [Example 8, m-tolyl-[1-[(2-phenyl-1H-imidazol-4-yl)methyl]-4-piperidyl]methanone], for which the values for the IC50 in test [1] and in test [2] were 313 nM and 4.62 µM, respectively.

As to `O=C(c1cccc(C(F)(F)F)c1)C1CCN(Cc2cnc(-c3ccccc3)[nH]2)CC1` [Example 1, (1-((2-Phenyl-1H-imidazol-5-yl)methyl)piperidin-4-yl)(3-(trifluoromethyl)phenyl)-methanone], the IC50 in test [1] amounted to 70 nM; in test [2], 0.742 µM.
